Laboratory results: US20230414628A1, “METHODS FOR TREATING DISEASES MEDIATED BY GLUTATHIONE PEROXIDASE 4” (priority 2022, published 2023)

Tested on: RAG01 (derived from fibroblasts of a patient diagnosed with SSMD) fibroblasts
Assay: CellTiter-Glo concentration response in RAG01 fibroblasts
Assay type: cell-based, human
Details: Homo sapiens, Fibroblast, 72 h
Method: Compounds described herein were tested in three cell lines, RAG01 (derived from fibroblasts of a patient diagnosed with SSMD) fibroblasts, RAG02 (derived from fibroblasts of the patient's parent), and GM09503 (from supplier Corriell) (derived from a healthy donor) to each generate 10-point concentration response curves (CRC). The three cell lines were each thawed seven (7) days prior to seeding. The RAG01 cells were thawed in a medium supplemented with a-tocopherol. Cells were passaged four (4) days prior to the seeding. The α-tocopherol was removed from the RAG01 cells. Cells were then seeded at 900 cells per well in 384-well plates. Two replicates were prepared for two independent (replicate) experiments. All plates were then incubated with compounds described herein for 72 hours, prior to CellTiter-Glo assay. […] The assay was run using the CellTiter-Glo (Promega) following manufacturer's guidelines and luminescent spectrophotometric reading on PHERAstar FSX (BMG Labtech). A 0.1% dimethylsulfoxide (DMSO) was used as a blank (vehicle control); and a 1 μM Ferrostatin-1 was used as a control (CTRL).
(§1) The raw data was analyzed using Activity Base® software. The compounds were evaluated by efficacy (percentage effect) normalized to the vehicle control. The percentage effect (PE) was determined from the signal increase in comparison to the vehicle control according to the formula below: […]
The percentage effect values were then plotted against log concentration of the drug to generate a concentration response curve. The curves were fitted using a four-parameter fit, and curve tops and hillslopes were fixed where required and justified.

| Molecule | EC50 [µM] |
| --- | --- |
| COC(=O)c1cc2c(C(F)(F)F)cc(-c3ccccc3)cc2n1O [compound 100, NHI-2] | 1.31 |

Same assay, conditions: Homo sapiens, Fibroblast; RAG01 cell line; 72 hours incubation; CellTiter-Glo; percentage effect normalized to vehicle control; 10-point CRC from 10 μM; read-out: EC50

| Molecule | EC50 [µM] |
| --- | --- |
| CC(C)(C=O)Cc1cc(C(C)(C)C)c(O)c(C(C)(C)C)c1 [compound 59, 3-(3,5-Ditert-butyl-4-hydroxyphenyl)-2,2-dimethylpropanal] | 0.928 |
| Brc1ccc(NC2C3CC4CC(C3)CC2C4)cc1 (stereo not shown) [compound 60, bromantane] | 0.429 |
| COc1cc2c(cc1O)C(CCc1ccc(Cl)cc1)N(C)CC2 (stereo not shown) [compound 61, Ro 04-5595] | 0.652 |
| COc1ccc2c(c1)CN(C)CC2c1ccc(Cl)c(Cl)c1 (stereo not shown) [compound 62, Diclofensine] | 3.85 |
| CO[C@H]1/C=C/O[C@@]2(C)Oc3c(C)c(O)c4c(O)c(c5c(nc6cc(C)ccn65)c4c3C2=O)NC(=O)/C(C)=C\C=C\[C@H](C)[C@H](O)[C@@H](C)[C@@H](O)[C@@H](C)[C@H](OC(C)=O)[C@@H]1C [compound 64, rifaximin] | 0.708 |
| CC(C)(C)CC(C)(C)c1ccc(O)c(Cc2ccc(Cl)cc2Cl)c1 [compound 65, clofoctol] | 2.23 |
| O=C1NC(=O)c2cc(Nc3ccccc3)c(Nc3ccccc3)cc21 [compound 66, CGP 52411] | 0.202 |
| C=CC(=O)Nc1cc(Nc2nccc(-c3cn(C)c4ccccc34)n2)c(OC)cc1N(C)CCN(C)C [compound 67, osimertinib] | 0.245 |
| C=CC(=O)Nc1cccc(Nc2nc(Nc3ccc(NC4CN(CCF)C4)cc3OC)ncc2C(F)(F)F)c1 [compound 68, CNX-2006] | 0.366 |
| C=CC(=O)Nc1cccc(Oc2nc(Nc3ccc(N4CCN(C)CC4)cc3)nc3ccsc23)c1 [compound 70, Olmutinib] | 0.485 |
| CS(=O)(=O)CCNCc1ccc(-c2ccc3ncnc(Nc4ccc(OCc5cccc(F)c5)c(Cl)c4)c3c2)o1 [compound 71, lapatinib] | 5.13 |
| CCN1CCC(n2cc(CNc3cc(Cl)c4ncc(C#N)c(Nc5ccc(F)c(Cl)c5)c4c3)nn2)CC1 [compound 72, Cot inhibitor-2] | 0.077 |
| O=C1NC(=O)c2cc(Nc3ccc(F)cc3)c(Nc3ccc(F)cc3)cc21 [compound 73, CGP 53353] | 0.168 |
| COc1ccc2c(c1)c(C1=C(c3c[nH]c4ccccc34)C(=O)NC1=O)cn2CCCN(C)C [compound 74, Go 6983] | 0.764 |
| CN1CCN(Cc2ccc(-c3cnc4[nH]cc(-c5ccc6[nH]ccc6c5)c4c3)cc2)CC1 [compound 75, URMC-099] | 0.377 |
| COc1cc(N2CCC(N3CCN(C)CC3)CC2)ccc1Nc1ncc(Cl)c(Nc2ccccc2S(=O)(=O)C(C)C)n1 [compound 76, NVP-TAE684] | 0.48 |
| CNC(=O)c1ccccc1Nc1cc(Nc2ccc(N3CCOCC3)cc2OC)ncc1C(F)(F)F [compound 77, PND-1186 (VS-4718)] | 0.611 |
| O=C1Nc2cc(Br)ccc2/C1=C1/Nc2ccccc2/C1=N\O [compound 79, GSK-3-inhibitor-IX] | 0.559 |
| CCOc1cc(N2CCC(O)CC2)ccc1Nc1ncc2c(n1)N(C1CCCC1)CCC(=O)N2C [compound 80, Mps1-IN-1] | 0.452 |
| Cc1cc(N2CCOCC2)ccc1Nc1nc(NC2CCCCC2)c2nc[nH]c2n1 [compound 81, MPI-0479605] | 0.688 |
| Cc1ccc(NC(=O)c2ccc(CN3CCN(C)CC3)cc2)cc1Nc1nc(-c2cccnc2)cs1 [compound 82, Masitinib (AB1010)] | 0.916 |
| Cc1ccccc1C(=O)c1ccc(Nc2ccc(Br)cc2N)cc1Cl [compound 83, EO-1428] | 1.04 |
| NC(=O)c1nc(Nc2ccccc2)sc1NC(=O)C1CCCCC1 [compound 85, UNC-3230] | 1.24 |

| Molecule | EC50 [µM] |
| --- | --- |
| CC1(C)CNc2cc(NC(=O)c3cccnc3NCc3ccncc3)ccc21 [compound 86, Motesanib] | 1.46 |
| Cc1ccc(F)c(NC(=O)Nc2ccc(-c3cccc4[nH]nc(N)c34)cc2)c1 [compound 87, Linifanib] | 1.65 |
| Cc1c(NC(=O)OC[C@@H]2COCCN2)cn2ncnc(Nc3ccc4c(cnn4Cc4cccc(F)c4)c3)c12 [compound 88, BMS-599626] | 2.3 |
| CC(C)(C)C(=O)/C(=N/c1ccc(Cl)cc1)NNc1ccc(Cl)cc1 [compound 90, TY 52156] | 0.117 |
| O=C1c2cccnc2C(=O)C(NCCN2CCOCC2)C1Cl (stereo not shown) [compound 91, NSC 663284] | 0.268 |
| COc1ccc2nc3cc(Cl)ccc3c(Nc3cc(CN4CCCC4)c(O)c(CN4CCCC4)c3)c2n1 [compound 92, pyronaridine] | 0.416 |
| COC(=O)c1sccc1S(=O)(=O)Nc1ccc(Nc2ccccc2)cc1OC [compound 93, GSK-0660] | 0.438 |
| OC(CNc1ccccc1)Cn1c2ccc(Br)cc2c2cc(Br)ccc21 (stereo not shown) [compound 94, P7C3] | 0.652 |
| Cc1cccc(Nc2nc(-c3ccncc3)cs2)c1 [compound 95, STF-62247] | 0.739 |
| COc1ccc(-c2nc(-c3ccc(-c4cccc(Cl)c4)o3)[nH]c2-c2ccc(OC)cc2)cc1 [compound 96, neurodazine] | 0.956 |
| c1ccc2c(Oc3nc(Nc4ccc(N5CCOCC5)cc4)c4ncn(C5CCCCC5)c4n3)cccc2c1 [compound 97, Purmorphamine] | 1.1 |
| C[C@@H]1CC(=O)c2c(ccc3c2C(=O)c2cccc(O)c2C3=O)C1 [compound 98, ochromycinone] | 1.15 |
| O=C1C=Cc2cc(Br)ccc2C1=O [compound 99, bonaphthone] | 1.27 |
| Cc1[nH]c(/C=C2\C(=O)Nc3cc(-c4ccccc4)ccc32)c(C)c1CCC(=O)O [compound 101, su-16f] | 1.38 |
| N#Cc1ccc(-c2csc(NN=C3CCCC3)n2)cc1 [compound 103, remodelin] | 1.56 |
| COC(=O)/C=C/c1cccc(N(Cc2ccc(-c3ccc(N(C)C)cc3)cc2)C(=O)C2CCCCC2)c1 [compound 104, Fexaramine] | 1.72 |
| CC(C)(C)c1cc(C(C)(C)C)c(NC(=O)c2c[nH]c3ccccc3c2=O)cc1O [compound 105, ivacaftor] | 1.84 |
| Cc1nn(C)c2nc(NNC(=O)Nc3cc(Cl)nc(Cl)c3)cc(C(C)C)c12 [compound 106, JTE-013] | 2.47 |
| COc1cc(OC)cc(C(=O)NNC(=O)Nc2cccc3ccccc23)c1 [compound 107, TC-O-9311] | 3.55 |
| Cn1cc(/C=C/C(=O)c2cccc(F)c2)cc1/C=C/C(=O)NO [compound 108, MC1568] | 3.77 |
| COc1ccc2c3c([nH]c2c1)[C@H](CC(C)C)N1C(=O)[C@H](CCC(=O)OC(C)(C)C)NC(=O)[C@@H]1C3 [compound 109, Ko 143] | 3.94 |
| CCC[C@H](N[C@H]1CCc2cc(F)cc(F)c2C1)C(=O)Nc1cn(C(C)(C)CNCC(C)(C)C)cn1 [compound 110, Nirogacestat] | 5.56 |

Same assay, conditions: RAG01 cell line; 72 hours incubation; CellTiter-Glo; percentage effect normalized to vehicle control; 10-point CRC from 10 μM; read-out: EC50

| Molecule | EC50 [µM] |
| --- | --- |
| CCCCCCCCCCC(O)C1C=CC2C(=O)N(c3ccccc3)C(=O)C2N1Nc1ccc([N+](=O)[O-])cc1 (stereo not shown) [compound 89, A12B4C3] | 2.67 |
| butylated hydroxyanisole [compound 11] | 1.18 |
| licochalcone [compound 21] | 1.07 |
| piperacetazine [compound 45] | 1.58 |

Tested on: RAG02 (derived from fibroblasts of the patient's parent)
Assay: CellTiter-Glo assay in RAG02 control cell line
Assay type: cell-based, human
Details: 1 μM control, 72 hours
Method: (§2) Compounds described herein were tested in three cell lines, RAG01 (derived from fibroblasts of a patient diagnosed with SSMD) fibroblasts, RAG02 (derived from fibroblasts of the patient's parent), and GM09503 (from supplier Corriell) (derived from a healthy donor) to each generate 10-point concentration response curves (CRC). The three cell lines were each thawed seven (7) days prior to seeding. The RAG01 cells were thawed in a medium supplemented with a-tocopherol. Cells were passaged four (4) days prior to the seeding. The α-tocopherol was removed from the RAG01 cells. Cells were then seeded at 900 cells per well in 384-well plates. Two replicates were prepared for two independent (replicate) experiments. All plates were then incubated with compounds described herein for 72 hours, prior to CellTiter-Glo assay. The compounds were tested in 10-point concentration (CRCs) from 10 μM using 3.16×(half Log) dilutions. The assay was run using the CellTiter-Glo (Promega) following manufacturer's guidelines and luminescent spectrophotometric reading on PHERAstar FSX (BMG Labtech). […]
as §1

| Molecule | effect of control compound on RAG02 cells |
| --- | --- |
| CCOC(=O)c1ccc(NC2CCCCC2)c(N)c1 [Ferrostain-1, Ferrostatin-1] | No effect |

Tested on: GM09503 (derived from a healthy donor)
Assay: CellTiter-Glo assay in GM09503 control cell line
Assay type: cell-based, human
Details: 1 μM control, 72 hours
Method: as §2, §1

| Molecule | effect of control compound on GM09503 cells |
| --- | --- |
| CCOC(=O)c1ccc(NC2CCCCC2)c(N)c1 [Ferrostain-1, Ferrostatin-1] | No effect |
